Results from patent US11337627B2, “Bioelectrode for detection and/or oxidation of glucose, its production method and device” (CENTRE NATIONAL DE LA RECHERCHE SCIENTIFIQUE, priority 2016, dated 2022).

Legend:
[1] = tested on: FAD-GDH enzyme; test: Cyclic voltammetric inhibition assays: FAD-GDH directly on carbon nanotubes, aromatic molecules added in solution; type: biochemical; conditions: 100 mmol L^−1 glucose; for effect on catalytic currents (inhibition of FAD-GDH): 200 μmol L^−1 in solution, sampling times of less than three hours; for catalytic current when the aromatic molecule is present in solution, versus absence of redox mediator: electrode of Comparative Example 4; for effect on performance of bioelectrocatalysis over time (inhibition of FAD-GDH): added in solution
Method: They were obtained with electrodes whose layer of FAD-GDH enzymes is directly deposited on layer 2 of carbon nanotubes in the presence of 100 mmol L^−1 of glucose solution.
The aromatic molecules 9.10-phenanthrenequinone, 1.10-phenanthroline-5.6-dione, phenanthrene and 1.10-phenanthroline are then gradually added in solution.
0 μM PX=CNTs functionalized by FAD-GDH in the presence of a glucose solution at 100 mmol L^−1 and in the absence of any aromatic molecules (X representing the aromatic molecule PLQ (cartridge A) or PQ (cartridge B))
400 μM PX=CNTs functionalized by FAD-GDH in the presence of a glucose solution at 100 mmol L^−1 and 400 μmol L^−1 of an aromatic molecule PLQ (cartridge A) or PQ (cartridge B)
400 μM PX (180 min)=CNTs functionalized by FAD-GDH in the presence of a glucose solution at 100 mmol L^−1 and […] of an aromatic molecule PLQ (cartridge A) or PQ (cartridge B) after incubation in the solution with a duration of 180 minutes.
200 μM PQ=CNTs functionalized by FAD-GDH in the presence of a solution of glucose at 100 mmol L^−1 and 200 μmol L^−1 of an aromatic molecule PQ (cartridge C and D)
200 μM PQ+200 μM PY (180 min)=CNTs functionalized by FAD-GDH in the presence of a glucose solution at 100 mmol L^−1, 200 μmol L^−1 of an aromatic molecule PQ and 200 μmol L^−1 of an aromatic molecule PY after incubation in the solution for a duration of 180 minutes. (Y represents the aromatic molecule PL (cartridge C) or PH (cartridge D)). • PLQ=1.10-phenanthroline-5.6-dione. • PQ=9.10-phenanthrenequinone, • PL=1.10-phenanthroline, • PH=phenanthrene,
The electrode tested was a vitreous carbon electrode (support 1) in which the FAD-GDH enzyme alone was deposited on layer 2 of carbon nanotubes (Comparative Example 4).

[2] = tested on: FAD-GDH enzyme; test: as above; type: biochemical; conditions: 100 mmol L^−1 glucose, 400 μmol L^−1 aromatic molecule
[3] = tested on: FAD-GDH enzyme; test: Cyclic voltammetry of bioelectrodes (carbon nanotubes / aromatic molecule / FAD-GDH) without and with glucose; type: biochemical
Method: In FIG. 4, the following terms have the following meanings: • uCNT=carbon nanotubes alone, • FADGDH=CNTs functionalized by FAD-GDH, • 25 mM glucose=CNTs functionalized by FAD-GDH in the presence of a glucose solution at 25 mmol L^−1, • 25 mM glucose (FAD region)=same as above, including the electroactive region of the FAD-GDH cofactor (FAD) in the measurement window in the presence of a glucose solution at 25 mmol L^−1, • FAD=Flavin Adenine Dinucleotide, • 25 mM glucose=concentration of the glucose solution of 25 mmol L^−1, • PYR-NHS=N-hydroxysuccinimide ester of pyrene-butyric acid, • PYR=pyrene, • 1.4-NQ=1.4-naphthoquinone, • PQ=9.10-phenanthrenequinone, • PL=1.10-phenanthroline, • MPL=5-methyl-1.10-phenanthroline, • PLQ=1.10-phenanthroline-5.6-dione.
The tested electrode was a vitreous carbon electrode (support 1) coated with layer 2 of carbon nanotubes alone (Comparative Example 2) or in which the FAD-GDH enzyme alone was deposited on layer 2 of carbon nanotubes (Comparative Example 4).
The dashed curve denoted 3 represents the cyclic voltammogram obtained with a larger electrochemical window (from −0.600 to 0.100 V vs SCE), in the presence of a glucose solution at 25 mmol L^−1.
In FIG. 4, the cartridge C represents the cyclic voltammograms of the electrode of Comparative Example 6 consisting of a vitreous carbon electrode, of layer 2 of carbon nanotubes functionalized by layer 3 of an aromatic molecule which is 1-pyrenebutyric acid N-hydroxysuccinimide ester (PANHS).
Cartridges D, G and H represent the cyclic voltammograms of the electrodes obtained in Examples 4, 5 and 6 respectively.
Cartridges E, F and I show the cyclic voltammograms obtained with the electrodes obtained in Examples 7, 8 and 1 respectively.

[4] = tested on: enzyme FAD-GDH; conditions: known; supplier catalog; cited from earlier work

## O=C1C(=O)c2ccccc2-c2ccccc21 [9.10-phenanthrenequinone]
[1]
  effect on catalytic currents (inhibition of FAD-GDH): does not cause a drastic decrease in the catalytic currents
  catalytic current when the aromatic molecule is present in solution, versus absence of redox mediator: strong increase of the catalytic current
[2]
  change of catalytic current after 180 min incubation (inhibition of FAD-GDH): no decrease in the catalytic current

## O=C1C(=O)c2cccnc2-c2ncccc21 [1.10-phenanthroline-5.6-dione]
[1]
  catalytic current when the aromatic molecule is present in solution, versus absence of redox mediator: strong increase in the catalytic current
  effect on performance of bioelectrocatalysis over time (inhibition of FAD-GDH): progressive decrease in the performance of bioelectrocatalysis
[2]
  change of catalytic current after 180 min incubation (inhibition of FAD-GDH): sharp decrease in the catalytic current
[3]; aromatic molecule immobilized on carbon nanotube layer with FAD-GDH
  glucose concentration at saturation: ~130 mmol/L
[3]; aromatic molecule immobilized on carbon nanotube layer with FAD-GDH, potentials higher than 0 V vs SCE, after saturation with glucose
  electrocatalytic current: 600-700 μA
[3]; non-covalent immobilization on a layer of carbon nanotubes
  electron transfer behavior of the aromatic molecule towards FAD-GDH: the best redox aromatic molecule

## c1ccc2c(c1)ccc1ccccc12 [phenanthrene]
[1]
  effect on catalytic currents (inhibition of FAD-GDH): does not cause a drastic decrease in the catalytic currents

## c1cnc2c(c1)ccc1cccnc12 [1.10-phenanthroline]
[1]; 200 μmol L^−1 PQ and 200 μmol L^−1 tested molecule, 180 min
  change of catalytic current after 180 min incubation together with PQ (inhibition of FAD-GDH): The catalytic current drops again
[1]
  effect on performance of bioelectrocatalysis over time (inhibition of FAD-GDH): progressive decrease in the performance of bioelectrocatalysis
[4]
  inhibitory activity for FAD-GDH oxidation of glucose: inhibitor of the enzyme FAD-GDH
